Reference: patent US20120244226A1, “TREATMENT COMPOSITION AND METHOD” (DEC INTERNATIONAL NZ LIMITED, priority 2009, published 2012)
“Also recorded” adds a separate entry of the source.

Assays:
[1] = tested on: interleukin-6 (IL-6) produced by LPS activated neutrophils; assay: IL-6 production by LPS activated neutrophils (ELISA); format: cell-based, rat; conditions: for effect on IL-6, in words / inhibition of IL-6 production: over the concentrations tested; for inhibition of IL-6 production: concentration not given
Procedure: (§1) The anti-inflammatory properties of the cationic fraction, IDP, and the combination of IDP with chondroitin and glucosamine were determined by measuring their ability to inhibit the production of the inflammatory compounds, tumor necrosis factor-α (TNF-α) and interleukin-6 (IL-6) produced by LPS activated neutrophils. […] Neutrophils were isolated from rat blood and incubated in the presence of LPS. LPS is derived from bacterial cell walls and is used to mimic a 'bacterial infection'. […] Two of these cytokine are TNF-α and IL-6. The concentrations of both cytokines produced by neutrophils exposed to LPS and the various test substances are summarised graphically in FIGS. 1 and 2 respectively. […] Aliquots from each set of triplicates were combined, and duplicates assayed for cytokine concentrations. The plate blank was subtracted from each individual data point. A VersaMax 96-well plate reader was used to colorimetrically assess the production of TNF-α and IL-6 as determined by the ELISA, using Rat TNF-α ELISA kit, R&D Systems, Cat # RTA00, and Rat IL-6 ELISA kit, R&D Systems, Cat # […]. The average cytokine concentration, standard deviation and standard error were calculated for each data set (sample and concentration). Preliminary statistical significance was assessed using independent Student t-tests at α≦0.05.

[2] = tested on: tumor necrosis factor-α (TNF-α) produced by LPS activated neutrophils; assay: TNF-α production by LPS activated neutrophils (ELISA); format: cell-based, rat
Procedure: as §1

[3] = 300 μg/ml, relative to LPS only control
[4] = Rattus norvegicus, Neutrophil, 100 μg/ml, relative to LPS only control
[5] = Rattus norvegicus, Neutrophil, 300 μg/ml, relative to LPS only control
[6] = Rattus norvegicus, Neutrophil, read-out: IL-6 % Inhibition
[7] = Rattus norvegicus, Neutrophil, read-out: TNF-α % Inhibition
[8] = Rattus norvegicus, Neutrophil, 4 μg/ml, relative to LPS only control
[9] = Rattus norvegicus, Neutrophil, 12 μg/ml, relative to LPS only control
[10] = Rattus norvegicus, Neutrophil, 1 μg/ml, relative to LPS only control
[11] = Rattus norvegicus, Neutrophil, 10 μg/ml, relative to LPS only control

CC(=O)Oc1ccccc1C(=O)O [Aspirin, acetylsalicylic acid]
dose response on IL-6, in words [1]: characteristic dose response | IL-6 ([1]; 100 μg/ml): 63.2 pg/mL | IL-6 ([1]; 300 μg/ml): 0 pg/mL | IL-6 % Inhibition [1, 3]: completely inhibited | inhibition at 100 µg/mL [1, 4]: 78.7% | inhibition at 300 µg/mL [1, 5]: 100% | effect on IL-6, in words [1]: reducing both TNF-α and IL-6 levels significantly | dose response on TNF-α, in words [2]: characteristic dose response | TNF-α ([2]; 100 μg/ml): 159.17 pg/mL | TNF-α ([2]; 300 μg/ml): 99.45 pg/mL | TNF-α % Inhibition [2, 3]: 63.9% | inhibition at 100 µg/mL [2, 4]: 42.2% | inhibition at 300 µg/mL [2, 5]: 64% | effect on TNF-α, in words ([2]; over the concentrations tested): reducing both TNF-α and IL-6 levels significantly

CCN(CC)CCCC(C)Nc1ccnc2cc(Cl)ccc12 (stereo not shown) [Chloroquine]
IL-6 ([1]; 50 μM): 0 pg/mL | IL-6 ([1]; 100 μM): 0 pg/mL | inhibition at 50 µM [1, 6]: 100% | inhibition at 100 µM [1, 6]: 100% | effect on IL-6, in words [1]: completely inhibiting; also recorded: completely inhibited | TNF-α ([2]; 50 μM): 0 pg/mL | TNF-α ([2]; 100 μM): 0 pg/mL | inhibition at 50 µM [2, 7]: 100% | inhibition at 100 µM [2, 7]: 100% | effect on TNF-α, in words ([2]; over the concentrations tested): completely inhibiting; also recorded: completely inhibited

COc1cc(/C=C/C(=O)CC(=O)/C=C/c2ccc(O)c(OC)c2)ccc1O [Curcumin, curcumin]
dose response on IL-6, in words [1]: no apparent dose effect | IL-6 ([1]; 4 μg/ml): 38.65 pg/mL | IL-6 ([1]; 12 μg/ml): 31.14 pg/mL | inhibition at 4 µg/mL [1, 8]: 87% | inhibition at 12 µg/mL [1, 9]: 89.5% | effect on IL-6, in words [1]: close to complete inhibition | inhibition of IL-6 production [1]: 90% | dose response on TNF-α, in words [2]: no apparent dose effect | TNF-α ([2]; 4 μg/ml): 146.71 pg/mL | TNF-α ([2]; 12 μg/ml): 180.66 pg/mL | inhibition at 4 µg/mL [2, 8]: 46.7% | inhibition at 12 µg/mL [2, 9]: 34.4% | inhibition of TNF-α production ([2]; over the concentrations tested, concentration not given): approximately 50%

O=C(O)Cc1ccccc1Nc1c(Cl)cccc1Cl [Diclofenac]
dose response on IL-6, in words [1]: inverse dose response | IL-6 ([1]; 1 μg/ml): 78.39 pg/mL | IL-6 ([1]; 10 μg/ml): 90.55 pg/mL | IL-6 ([1]; 100 μg/ml): 185.71 pg/mL | inhibition at 1 µg/mL [1, 10]: 73.6% | inhibition at 10 µg/mL [1, 11]: 69.5% | inhibition at 100 µg/mL [1, 4]: 37.4% | inhibition of IL-6 production ([1]; listed as Voltaren (Diclofenac)): 74-38% | dose response on TNF-α, in words [2]: inverse dose response | TNF-α ([2]; 1 μg/ml): 132.01 pg/mL | TNF-α % Inhibition ([2]; 1 μg/ml, relative to LPS only control): 52.1% | TNF-α ([2]; 10 μg/ml): 151.97 pg/mL | TNF-α ([2]; 100 μg/ml): 342.46 pg/mL | effect on TNF-α, in words ([2]; 100 μg/ml): appeared to stimulate TNF-α | TNF-α ([2]; 100 μg/ml, listed as Voltaren (Diclofenac)): 342 pg/mL | inhibition at 1 µg/mL [2, 10]: 52% | inhibition at 10 µg/mL [2, 11]: 44.8% | inhibition at 100 µg/mL [2, 4]: -24.4%
